Results on 12 compounds are retold here after patent publication US6417212B1, “Modulators of peroxisome proliferator activated receptors” (Eli Lilly & Company, priority 1999, dated 2002).

Experiment [1] concerns the target T1, huPPARγ (Homo sapiens, UniProt P37231).
T1 sequence (P37231 1-505): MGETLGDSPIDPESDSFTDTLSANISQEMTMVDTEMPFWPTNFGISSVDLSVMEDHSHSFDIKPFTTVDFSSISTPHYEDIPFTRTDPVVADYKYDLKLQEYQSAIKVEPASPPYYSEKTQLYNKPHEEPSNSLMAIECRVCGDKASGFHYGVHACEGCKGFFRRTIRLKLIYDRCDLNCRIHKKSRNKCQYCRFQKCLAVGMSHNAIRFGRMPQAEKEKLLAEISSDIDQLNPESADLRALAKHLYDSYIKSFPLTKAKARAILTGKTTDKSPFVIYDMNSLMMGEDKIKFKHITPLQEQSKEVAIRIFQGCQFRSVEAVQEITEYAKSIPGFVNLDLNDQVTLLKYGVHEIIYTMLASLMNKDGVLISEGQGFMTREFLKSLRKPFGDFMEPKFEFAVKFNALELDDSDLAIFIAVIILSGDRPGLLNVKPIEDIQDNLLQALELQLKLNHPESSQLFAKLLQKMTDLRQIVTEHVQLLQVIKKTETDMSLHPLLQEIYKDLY
T1 sequence (P19793 1-462 partner): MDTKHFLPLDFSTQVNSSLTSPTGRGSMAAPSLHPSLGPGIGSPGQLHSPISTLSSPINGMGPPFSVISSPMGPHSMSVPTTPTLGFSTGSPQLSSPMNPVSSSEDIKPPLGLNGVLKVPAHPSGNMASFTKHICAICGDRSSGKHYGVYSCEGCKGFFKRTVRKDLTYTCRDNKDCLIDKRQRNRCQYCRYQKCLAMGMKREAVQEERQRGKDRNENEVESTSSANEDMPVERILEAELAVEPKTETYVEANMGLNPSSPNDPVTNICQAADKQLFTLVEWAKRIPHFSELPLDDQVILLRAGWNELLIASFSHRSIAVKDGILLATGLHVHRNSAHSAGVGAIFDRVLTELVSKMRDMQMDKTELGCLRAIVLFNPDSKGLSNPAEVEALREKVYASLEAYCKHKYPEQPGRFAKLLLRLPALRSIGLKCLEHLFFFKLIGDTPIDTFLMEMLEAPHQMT
Put plainly: DNA-dependent binding (ABCD binding), SPA, huPPARγ. As to conditions: displacement of tritium-labeled PPARγ agonist radioligand. As for the experimental part: (§1) DNA-dependent binding (ABCD binding) was carried out using SPA technology with PPAR receptors. Tritium-labeled PPARγ and PPARα agonists were used as radioligands for generating displacement curves and IC50 values with compounds of the invention. Cotransfection assays were carried out in CV-1 cells. The reporter plasmid contained an acylCoA oxidase (AOX) PPRE and TK promoter upstream of the luciferase reporter cDNA. Appropriate PPARs and RXRα were constitutively expressed using plasmids containing the CMV promoter. […] In order to eliminate such interference, a GAL4 chimeric system was used in which the DNA binding domain of the transfected PPAR was replaced by that of GAL4, and the GAL4 response element was utilized in place of the AOX PPRE. Cotransfection efficacy was determined relative to PPARα agonist and PPARβ agonist reference molecules. Efficacies were determined by computer fit to a concentration-response curve, or in some cases at a single high concentration of agonist (10 μM). For binding or cotransfection studies with receptors other than PPARs, similar assays were carried out using appropriate ligands, receptors, reporter constructs, etc., for that particular receptor.
(§2) These studies were carried out to evaluate the ability of compounds of the invention to bind to and/or activate various nuclear transcription factors, particularly huPPARα (“hu” indicates “human”) and huPPARγ. These studies provide in vitro data concerning efficacy and selectivity of compounds of the invention. Furthermore, binding and cotransfection data for compounds of the invention were compared with corresponding data for marketed compounds that act on either huPPARα or huPPARγ.

The target of experiment [2] is T1, huPPARγ. Put plainly: Cotransfection assay in CV-1 cells, huPPARγ. Further details: expressed in transfected cells; host or cells: CV-1 cells. As to conditions: AOX PPRE luciferase reporter, relative to agonist reference molecule; for Emax: read-out: huPPARγ CTF Efficacy. Type of experiment: cell-based. On the procedure: as §1, with “Tritium-labeled PPARγ and PPARα agonists were used as radioligands for generating displacement curves and IC50 values with compounds of the invention.” left out, “Cotransfection efficacy was determined relative to PPARα agonist and PPARβ agonist reference molecules.” left out
as §2

The target of experiment [3] is T2, huPPARα (Homo sapiens, UniProt Q07869).
T2 sequence (Q07869 1-468): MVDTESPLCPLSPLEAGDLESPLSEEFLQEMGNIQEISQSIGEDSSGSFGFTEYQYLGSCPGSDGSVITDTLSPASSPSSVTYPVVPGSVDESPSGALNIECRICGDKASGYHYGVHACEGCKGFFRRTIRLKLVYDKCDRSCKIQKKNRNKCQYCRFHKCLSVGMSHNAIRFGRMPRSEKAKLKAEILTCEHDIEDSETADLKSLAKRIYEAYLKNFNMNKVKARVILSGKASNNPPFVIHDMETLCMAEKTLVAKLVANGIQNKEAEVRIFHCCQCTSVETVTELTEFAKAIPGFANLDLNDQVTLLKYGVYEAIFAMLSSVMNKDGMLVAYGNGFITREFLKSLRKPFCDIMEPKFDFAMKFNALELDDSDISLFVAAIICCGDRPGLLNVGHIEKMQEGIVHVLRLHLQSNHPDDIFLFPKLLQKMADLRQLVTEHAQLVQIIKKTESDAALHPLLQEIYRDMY
T2 sequence (P19793 1-462 partner): T1 sequence (P19793 1-462 partner)
Put plainly: DNA-dependent binding (ABCD binding), SPA, huPPARα. As to conditions: displacement of tritium-labeled PPARα agonist radioligand. On the procedure: as §1, §2

For experiment [4], the system named is huPPARα. Put plainly: Cotransfection assay in CV-1 cells, huPPARα (GAL4 chimeric system). As to conditions: luciferase reporter, relative to PPARα agonist reference molecule. Type of experiment: cell-based, human. As for the experimental part:
DNA-dependent binding (ABCD binding) was carried out using SPA technology with PPAR receptors. Tritium-labeled PPARγ and PPARα agonists were used as radioligands for generating displacement curves and IC50 values with compounds of the invention. Cotransfection assays were carried out in CV-1 cells. The reporter plasmid contained an acylCoA oxidase (AOX) PPRE and TK promoter upstream of the luciferase reporter cDNA. Appropriate PPARs and RXRα were constitutively expressed using plasmids containing the CMV promoter. For PPARα and PPARβ, interference by endogenous PPARγ in CV-1 cells was an issue. In order to eliminate such interference, a GAL4 chimeric system was used in which the DNA binding domain of the transfected PPAR was replaced by that of GAL4, and the GAL4 response element was utilized in place of the AOX PPRE. Cotransfection efficacy was determined relative to PPARα agonist and […] reference molecules. Efficacies were determined by computer fit to a concentration-response curve, or in some cases at a single high concentration of agonist (10 μM). For binding or cotransfection studies with receptors other than PPARs, similar assays were carried out using appropriate ligands, receptors, reporter constructs, etc., for that particular receptor.
as §2

Usually IC50 stands for the point on the concentration scale where inhibition reaches its midpoint. On to `COc1ccccc1-c1ccc(-c2nc(CCOc3ccc(OC(C)(C)C(=O)O)cc3)c(C)o2)cc1` [Example 10, 2-(4-{2-[2-(2′-Methoxy-biphenyl-4-yl)-5-methyloxazol-4-yl]-ethoxy}-phenoxy)-2-methylpropionic acid], for which the values for the IC50 in experiment [1] and in experiment [3] were 1.06 µM and 0.35 µM, respectively. Moreover, in experiment [2], the Emax came to 80%. Besides, the “huPPARα CTF Efficacy” value in experiment [4] came out at 111%.
The like results for `Cc1oc(-c2ccc(-c3ccccc3F)cc2)nc1CCOc1ccc(OC(C)(C)C(=O)O)cc1` [Example 13, 2-(4-{2-[2-(2′-Fluorobiphenyl-4-yl)-5-methyloxazol-4-yl]-ethoxy}-phenoxy)-2-methylpropionic acid] were, in that order, 0.928 µM, 0.475 µM, 100% and 84%.
The corresponding values for `Cc1oc(-c2ccc(-c3ccc[nH]3)cc2)nc1CCOc1ccc(OC(C)(C)C(=O)O)cc1` [Example 18, 2-Methyl-2-[4-(2-{5-methyl-2-[4-(1H-pyrrol-2-yl)-phenyl]-oxazol-4-yl}-ethoxy)-phenoxy]propionic acid] are 1.79 µM, 0.539 µM, 145% and 97%.
The corresponding values for `Cc1oc(-c2ccc(-c3ccccc3)cc2)nc1CCOc1ccc(OC(C)(C)C(=O)O)c(CC2CCCCC2)c1` [Example 25, 2-{4-[2-(2-Biphenyl-4-yl-5-methyloxazol-4-yl)-ethoxy]-2-cyclohexylmethyl-phenoxy}-2-methyl-propionic acid] are 0.081 µM, 0.125 µM, 71% and 104%.
Consider `Cc1oc(-c2cccc(-c3ccccc3)c2)nc1CCOc1ccc(OC(C)(C)C(=O)O)c(CC2CCCCC2)c1` [Example 26, 2-{4-[2-(2-Biphenyl-3-yl-5-methyloxazol-4-yl)-ethoxy]-2-cyclohexylmethyl-phenoxy}-2-methyl-propionic acid], for which the half-maximal inhibitory concentration (IC50) in experiment [1] was 0.033 µM; in experiment [3], 0.078 µM. Further, the Emax in experiment [2] stood at 73%. The “huPPARα CTF Efficacy” value in experiment [4] is 111%.
The like results for `Cc1oc(-c2ccc(-c3ccccc3)cc2)nc1CCOc1ccc(OC(C)(C)C(=O)O)c(CCc2ccccc2)c1` [Example 28, 2-{4-[2-(2-Biphenyl-4-yl-5-methyloxazol-4-yl)ethoxy]-2-phenethylphenoxy}-2-methylpropionic acid] were, in that order, 0.14 µM, 0.172 µM, 63% and 93%.
For `CCCCc1cc(OC(C)(C)C(=O)O)ccc1OCCc1nc(-c2cccc(-c3ccccc3)c2)oc1C` [Example 32, 2-{4-[2-(2-Biphenyl-3-yl-5-methyloxazol-4-yl)ethoxy]-3-butylphenoxy}-2-methylpropionic acid], the half-maximal inhibitory concentration (IC50) in experiment [1] stood at 0.012 µM; in experiment [3], 0.047 µM. Further, the Emax in experiment [2] amounted to 60%. For the same compound, the “huPPARα CTF Efficacy” value in experiment [4] was 91%.
The like results for `Cc1oc(-c2ccc(-c3ccccc3)cc2)nc1CCOc1ccc(OC(C)(C)C(=O)O)cc1CC1CCCCC1` [Example 34, 2-{4-[2-(2-Biphenyl-4-yl-5-methyloxazol-4-yl)ethoxy]-3-cyclohexylmethylphenoxy}-2-methylpropionic acid] were, in that order, 0.227 µM, 0.193 µM, 55% and 180%.
The corresponding values for `Cc1oc(-c2cccc(-c3ccccc3)c2)nc1CCOc1ccc(OC(C)(C)C(=O)O)c(Cc2ccccc2)c1` [Example 35, 2-{2-Benzyl-4-[2-(2-biphenyl-3-yl-5-methyloxazol-4-yl)-ethoxy]-phenoxy}-2-methyl-propionic acid] are 0.024 µM, 0.065 µM, 61% and 90%.
The corresponding values for `Cc1oc(-c2ccc(-c3ccccc3)cc2)nc1CCOc1ccc(OC(C)(C)C(=O)O)c(Cc2ccccc2)c1` [Example 36, 2-{2-Benzyl-4-[2-(2-biphenyl-4-yl-5-methyloxazol-4-yl)-ethoxy]-phenoxy}-2-methyl-propionic acid] are 0.062 µM, 0.14 µM, 92% and 140%.
Turning to `Cc1oc(-c2ccc(-c3ccccc3)cc2)nc1CCSc1ccc(OC(C)(C)C(=O)O)cc1` [Example 47, 2-{4-[2-(2-Biphenyl-4-yl-5-methyloxazol-4-yl)-ethylsulfanyl]-phenoxy}-2-methyl-propionic acid], the concentration for half-maximal inhibition (IC50) in experiment [1] was 1.53 µM; in experiment [3] it was 0.371 µM. In experiment [2], the Emax came to 126%. Moreover, in experiment [4], the “huPPARα CTF Efficacy” value stood at 90%.
Take `CC(C)(Oc1ccc(C(=O)c2ccc(Cl)cc2)cc1)C(=O)O` [Fenofibric acid, reference compound]: the “huPPARγ CTF Efficacy” value in experiment [2] worked out at 0%. Besides, the “huPPARα CTF Efficacy” value in experiment [4] stood at 16%.
